How the values were obtained:
Test in all cases: relative viability (nuclei count vs DMSO), 5 days (fraction); higher = more cells survive
LCLC-103H = system: LCLC-103H
Outline: (§1)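 Lung cancer cell lines were seeded in 1536-well plates and dosed by pin tool the next day, with either a single drug or a fixed anchor-drug dose combined with five library-drug doses (not always all listed) spaced in √10 steps. Five days later, one step fixed the cells and stained their nuclei (final 0.05% Triton X-100, 1% formaldehyde, 1 ug/ml Hoechst), and nuclei were counted on 4× images. Relative viability is the nuclei count in treated wells divided by the count in vehicle wells, and each value is the median of duplicate plates.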

LXF-289 = system: LXF-289
Outline: as §1

NCI-H1355 = system: NCI-H1355
Outline: as §1

NCI-H1563 = system: NCI-H1563
Outline: as §1

NCI-H1651 = system: NCI-H1651
Outline: as §1

NCI-H1755 = system: NCI-H1755
Outline: as §1

NCI-H1792 = system: NCI-H1792
Outline: as §1

NCI-H1915 = system: NCI-H1915
Outline: as §1

NCI-H2170 = system: NCI-H2170
Outline: as §1

NCI-H2347 = system: NCI-H2347
Outline: as §1

NCI-H3122 = system: NCI-H3122
Outline: as §1

NCI-H322M = system: NCI-H322M
Outline: as §1

NCI-H441 = system: NCI-H441
Outline: as §1

NCI-H460 = system: NCI-H460
Outline: as §1

NCI-H520 = system: NCI-H520
Outline: as §1

NCI-H596 = system: NCI-H596
Outline: as §1

NCI-H650 = system: NCI-H650
Outline: as §1

NCI-H661 = system: NCI-H661
Outline: as §1

NCI-H727 = system: NCI-H727
Outline: as §1

PC-14 = system: PC-14
Outline: as §1

RERF-LC-KJ = system: RERF-LC-KJ
Outline: as §1

SK-MES-1 = system: SK-MES-1
Outline: as §1

In the case of `C=C1C(=O)O[C@@H](CCCCCCCC)[C@@H]1C(=O)O` [C-75] + CS(=O)(=O)N1CCN(Cc2cc3nc(-c4cccc5[nH]ncc45)nc(N4CCOCC4)c3s2)CC1 [Pictilisib] (partner 1 µM), the relative viability (LCLC-103H; first compound 0.08 µM) is reported as 0.573, the relative viability (LCLC-103H; first compound 0.253 µM) is reported as 0.641 and the relative viability (LCLC-103H; first compound 0.8 µM) is reported as 0.517. It also gave a relative viability (LCLC-103H; first compound 2.53 µM) of 0.568, a relative viability (LCLC-103H; first compound 8 µM) of 0.488 and a relative viability (LXF-289; first compound 0.08 µM) of 0.77. The relative viability (LXF-289; first compound 0.253 µM) was 0.836, the relative viability (LXF-289; first compound 0.8 µM) was 0.76 and the relative viability (LXF-289; first compound 2.53 µM) was 0.771. The relative viability (LXF-289; first compound 8 µM) was 0.73, the relative viability (NCI-H1355; first compound 0.08 µM) was 0.477 and the relative viability (NCI-H1355; first compound 0.253 µM) was 0.48. For the same compound, the relative viability (NCI-H1355; first compound 0.8 µM) was 0.348, the relative viability (NCI-H1355; first compound 2.53 µM) was 0.507 and the relative viability (NCI-H1355; first compound 8 µM) was 0.465. It also gave a relative viability (NCI-H1563; first compound 0.08 µM) of 0.606, a relative viability (NCI-H1563; first compound 0.253 µM) of 0.681 and a relative viability (NCI-H1563; first compound 0.8 µM) of 0.737. It also gave a relative viability (NCI-H1563; first compound 2.53 µM) of 0.673, a relative viability (NCI-H1563; first compound 8 µM) of 0.63 and a relative viability (NCI-H1651; first compound 0.08 µM) of 0.466. For the same compound, the relative viability (NCI-H1651; first compound 0.253 µM) was 0.633, the relative viability (NCI-H1651; first compound 0.8 µM) was 0.499 and the relative viability (NCI-H1651; first compound 2.53 µM) was 1.04. The relative viability (NCI-H1651; first compound 8 µM) was 0.501, the relative viability (NCI-H1755; first compound 0.08 µM) was 0.461 and the relative viability (NCI-H1755; first compound 0.253 µM) was 0.448. It also gave a relative viability (NCI-H1755; first compound 0.8 µM) of 0.389, a relative viability (NCI-H1755; first compound 2.53 µM) of 0.339 and a relative viability (NCI-H1755; first compound 8 µM) of 0.402. It also gave a relative viability (NCI-H1792; first compound 0.08 µM) of 0.312, a relative viability (NCI-H1792; first compound 0.253 µM) of 0.268 and a relative viability (NCI-H1792; first compound 0.8 µM) of 0.293. For the same compound, the relative viability (NCI-H1792; first compound 2.53 µM) was 0.261, the relative viability (NCI-H1792; first compound 8 µM) was 0.343 and the relative viability (NCI-H1915; first compound 0.08 µM) was 0.953. The relative viability (NCI-H1915; first compound 0.253 µM) was 1.08, the relative viability (NCI-H1915; first compound 0.8 µM) was 0.857 and the relative viability (NCI-H1915; first compound 2.53 µM) was 0.828. It also gave a relative viability (NCI-H1915; first compound 8 µM) of 0.763, a relative viability (NCI-H2170; first compound 0.08 µM) of 0.355 and a relative viability (NCI-H2170; first compound 0.253 µM) of 0.299. The relative viability (NCI-H2170; first compound 0.8 µM) was 0.318, the relative viability (NCI-H2170; first compound 2.53 µM) was 0.274 and the relative viability (NCI-H2170; first compound 8 µM) was 0.272. The relative viability (NCI-H2347; first compound 0.08 µM) was 0.554, the relative viability (NCI-H2347; first compound 0.253 µM) was 0.877 and the relative viability (NCI-H2347; first compound 0.8 µM) was 0.31. For the same compound, the relative viability (NCI-H2347; first compound 2.53 µM) was 0.592, the relative viability (NCI-H2347; first compound 8 µM) was 0.649 and the relative viability (NCI-H3122; first compound 0.08 µM) was 0.635. For the same compound, the relative viability (NCI-H3122; first compound 0.253 µM) was 0.753, the relative viability (NCI-H3122; first compound 0.8 µM) was 0.545 and the relative viability (NCI-H3122; first compound 8 µM) was 0.555. It also gave a relative viability (NCI-H322M; first compound 0.08 µM) of 0.563, a relative viability (NCI-H322M; first compound 0.253 µM) of 0.674 and a relative viability (NCI-H322M; first compound 0.8 µM) of 0.514. The relative viability (NCI-H322M; first compound 2.53 µM) was 0.528, the relative viability (NCI-H322M; first compound 8 µM) was 0.489 and the relative viability (NCI-H441; first compound 0.08 µM) was 0.473. For the same compound, the relative viability (NCI-H441; first compound 0.253 µM) was 0.536, the relative viability (NCI-H441; first compound 0.8 µM) was 0.403 and the relative viability (NCI-H441; first compound 2.53 µM) was 0.418. It also gave a relative viability (NCI-H441; first compound 8 µM) of 0.38, a relative viability (NCI-H460; first compound 0.08 µM) of 0.396 and a relative viability (NCI-H460; first compound 0.253 µM) of 0.472. It also gave a relative viability (NCI-H460; first compound 0.8 µM) of 0.303, a relative viability (NCI-H460; first compound 8 µM) of 0.348 and a relative viability (NCI-H520; first compound 0.08 µM) of 0.24. It also gave a relative viability (NCI-H520; first compound 0.253 µM) of 0.357, a relative viability (NCI-H520; first compound 0.8 µM) of 0.309 and a relative viability (NCI-H520; first compound 2.53 µM) of 0.224. For the same compound, the relative viability (NCI-H520; first compound 8 µM) was 0.297, the relative viability (NCI-H596; first compound 0.08 µM) was 0.406 and the relative viability (NCI-H596; first compound 0.253 µM) was 0.39. The relative viability (NCI-H596; first compound 0.8 µM) was 0.229, the relative viability (NCI-H596; first compound 2.53 µM) was 0.39 and the relative viability (NCI-H596; first compound 8 µM) was 0.438. For the same compound, the relative viability (NCI-H650; first compound 0.08 µM) was 0.864, the relative viability (NCI-H650; first compound 0.253 µM) was 0.825 and the relative viability (NCI-H650; first compound 0.8 µM) was 0.801. For the same compound, the relative viability (NCI-H650; first compound 2.53 µM) was 0.815, the relative viability (NCI-H650; first compound 8 µM) was 0.883 and the relative viability (NCI-H661; first compound 0.08 µM) was 0.398. For the same compound, the relative viability (NCI-H661; first compound 0.253 µM) was 0.493, the relative viability (NCI-H661; first compound 0.8 µM) was 0.355 and the relative viability (NCI-H661; first compound 2.53 µM) was 0.315. It also gave a relative viability (NCI-H661; first compound 8 µM) of 0.382, a relative viability (NCI-H727; first compound 0.08 µM) of 0.436 and a relative viability (NCI-H727; first compound 0.253 µM) of 0.59. The relative viability (NCI-H727; first compound 0.8 µM) was 0.339, the relative viability (NCI-H727; first compound 2.53 µM) was 0.362 and the relative viability (NCI-H727; first compound 8 µM) was 0.577. The relative viability (PC-14; first compound 0.08 µM) was 0.748, the relative viability (PC-14; first compound 0.253 µM) was 0.997 and the relative viability (PC-14; first compound 0.8 µM) was 0.668. The relative viability (PC-14; first compound 2.53 µM) was 0.753, the relative viability (PC-14; first compound 8 µM) was 0.695 and the relative viability (RERF-LC-KJ; first compound 0.08 µM) was 0.564. It also gave a relative viability (RERF-LC-KJ; first compound 0.253 µM) of 0.528, a relative viability (RERF-LC-KJ; first compound 0.8 µM) of 0.625 and a relative viability (RERF-LC-KJ; first compound 2.53 µM) of 0.537. For the same compound, the relative viability (RERF-LC-KJ; first compound 8 µM) was 0.533, the relative viability (SK-MES-1; first compound 0.08 µM) was 0.339 and the relative viability (SK-MES-1; first compound 0.253 µM) was 0.374. For the same compound, the relative viability (SK-MES-1; first compound 0.8 µM) was 0.374, the relative viability (SK-MES-1; first compound 2.53 µM) was 0.373 and the relative viability (SK-MES-1; first compound 8 µM) was 0.346.
